Experimental data from patent publication US20260132132A1, “3A,4,5,6-TETRAHYDRO-1 H-PYRAZOLO[3,4-C]PYRIDIN-7(7AH)-ONE DERIVATIVES AS FACTOR XIIA INHIBITORS” (KALVISTA PHARMACEUTICALS LIMITED, priority 2022, published 2026).

Molecular target: T1, Human Factor XIIa (hFXIIa) (Homo sapiens, UniProt P00748)
T1 construct: purchased Enzyme Research Laboratories
T1 sequence (P00748 373-615 limits assumed): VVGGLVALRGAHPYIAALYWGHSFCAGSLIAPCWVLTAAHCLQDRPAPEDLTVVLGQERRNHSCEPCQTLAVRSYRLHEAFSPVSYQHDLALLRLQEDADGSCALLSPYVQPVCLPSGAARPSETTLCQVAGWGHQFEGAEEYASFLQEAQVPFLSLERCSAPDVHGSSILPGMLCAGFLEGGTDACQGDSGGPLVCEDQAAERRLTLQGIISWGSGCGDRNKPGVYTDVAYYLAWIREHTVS
T1 sequence (P00748 20-372 partner limits assumed): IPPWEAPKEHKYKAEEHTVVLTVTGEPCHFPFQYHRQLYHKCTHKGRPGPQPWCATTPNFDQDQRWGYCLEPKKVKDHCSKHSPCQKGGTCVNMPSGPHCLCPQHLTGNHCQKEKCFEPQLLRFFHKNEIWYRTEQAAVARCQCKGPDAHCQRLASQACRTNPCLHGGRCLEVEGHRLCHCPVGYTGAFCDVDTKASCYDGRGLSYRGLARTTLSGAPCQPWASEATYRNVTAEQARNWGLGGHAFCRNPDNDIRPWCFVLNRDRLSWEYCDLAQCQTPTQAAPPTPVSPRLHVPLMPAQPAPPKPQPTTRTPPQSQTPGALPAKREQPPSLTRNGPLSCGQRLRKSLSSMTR
Test: Determination of Human Factor XIIa (hFXIIa) inhibition, fluorogenic substrate IC50 assay
Type: biochemical
Conditions: fluorogenic substrate H-DPro-Phe-Arg-AFC at Km, 25° C., read-out: Human FXIIa IC50
Description: Determination of Human Factor XIIa (hFXIIa) inhibition
The Km for the cleavage of the substrate by hFXIIa was determined by standard transformation of the Michaelis-Menten equation, with subsequent inhibition assays performed at substrate Km concentration.

CN1CCc2ccc(N3CCc4c(CO)nn(-c5cccc(Cl)c5)c4C3=O)cc2C1=O [Example 1183, 7-(1-(3-chlorophenyl)-3-(hydroxymethyl)-7-oxo-1,4,5,7-tetrahydro-6H-pyrazolo[3,4-c]pyridin-6-yl)-2-methyl-3,4-dihydroisoquinolin-1(2H)-one] and COCc1nn(-c2cccc(Cl)c2)c2c1CCN(c1ccc3c(c1)C(=O)N(C)CC3)C2=O [Example 1184, 7-(1-(3-chlorophenyl)-3-(methoxymethyl)-7-oxo-1,4,5,7-tetrahydro-6H-pyrazolo[3,4-c]pyridin-6-yl)-2-methyl-3,4-dihydroisoquinolin-1(2H)-one] fall in the same range of IC50: 1000 to 3000 nM for the first, 1000 to 3000 nM for the second.

First: CN1CCc2cc(N3CCc4c(C(=O)NCC5CC5)nn(-c5cccc(Cl)c5)c4C3=O)ccc2C1=O [Example 1190, 1-(3-chlorophenyl)-N-(cyclopropylmethyl)-6-(2-methyl-1-oxo-1,2,3,4-tetrahydroisoquinolin-6-yl)-7-oxo-4,5,6,7-tetrahydro-1H-pyrazolo[3,4-c]pyridine-3-carboxamide]
Second: CN1Cc2ccc(N3CCc4c(C(=O)NCC5CC5)nn(-c5cccc(Cl)c5)c4C3=O)cc2C1=O [Example 1192, 1-(3-chlorophenyl)-N-(cyclopropylmethyl)-6-(2-methyl-3-oxoisoindolin-5-yl)-7-oxo-4,5,6,7-tetrahydro-1H-pyrazolo[3,4-c]pyridine-3-carboxamide]
The IC50 of the first is higher: 10000 to 40000 nM for the first, 3000 to 10000 nM for the second. The second is the more potent here.

Compared with COC1CN(CCO)Cc2cc(N3CCc4c(C(=O)NCC5CC5)nn(-c5cccc(Cl)c5)c4C3=O)ccc21 (stereo not shown) [Example 1191, 1-(3-chlorophenyl)-N-(cyclopropylmethyl)-6-(2-(2-hydroxyethyl)-4-methoxy-1,2,3,4-tetrahydroisoquinolin-7-yl)-7-oxo-4,5,6,7-tetrahydro-1H-pyrazolo[3,4-c]pyridine-3-carboxamide], COc1cccnc1CNC(=O)c1nn(-c2cccc(Cl)c2)c2c1CCN(c1cc3c(cn1)CCN(CCO)C3)C2=O [Example 1221, 1-(3-chlorophenyl)-6-(6-(2-hydroxyethyl)-5,6,7,8-tetrahydro-2,6-naphthyridin-3-yl)-N-((3-methoxypyridin-2-yl)methyl)-7-oxo-4,5,6,7-tetrahydro-1H-pyrazolo[3,4-c]pyridine-3-carboxamide] is lower in IC50: 300 to 1000 nM for the first, 10 to 100 nM for the second.

First: CCOC(=O)c1nn(-c2cccc(Cl)c2)c2c1CCN(c1cccc(C(=O)N(C)C)c1)C2=O [Example 1196, ethyl 1-(3-chlorophenyl)-6-(3-(dimethylcarbamoyl)phenyl)-7-oxo-4,5,6,7-tetrahydro-1H-pyrazolo[3,4-c]pyridine-3-carboxylate]
Second: CCN1CCc2ccc(N3CCc4c(C(=O)NCc5cc(C)n(C)n5)nn(-c5cccc(Cl)c5)c4C3=O)cc2C1=O [Example 1219, 1-(3-chlorophenyl)-N-((1,5-dimethyl-1H-pyrazol-3-yl)methyl)-6-(2-ethyl-1-oxo-1,2,3,4-tetrahydroisoquinolin-7-yl)-7-oxo-4,5,6,7-tetrahydro-1H-pyrazolo[3,4-c]pyridine-3-carboxamide]
The IC50 of the first is higher: 3000 to 10000 nM for the first, 10 to 100 nM for the second.

First: C[C@@H](NC(=O)c1nn(-c2cccc(Cl)c2)c2c1CCN(c1ccc3c(c1)C(=O)N(C)CC3)C2=O)c1cccnc1 [Example 1214, (R)-1-(3-chlorophenyl)-6-(2-methyl-1-oxo-1,2,3,4-tetrahydroisoquinolin-7-yl)-7-oxo-N-(1-(pyridin-3-yl)ethyl)-4,5,6,7-tetrahydro-1H-pyrazolo[3,4-c]pyridine-3-carboxamide]
Second: C[C@H](NC(=O)c1nn(-c2cccc(Cl)c2)c2c1CCN(c1ccc3c(c1)C(=O)N(C)CC3)C2=O)c1cccnc1 [Example 1215, (S)-1-(3-chlorophenyl)-6-(2-methyl-1-oxo-1,2,3,4-tetrahydroisoquinolin-7-yl)-7-oxo-N-(1-(pyridin-3-yl)ethyl)-4,5,6,7-tetrahydro-1H-pyrazolo[3,4-c]pyridine-3-carboxamide]
The IC50 of the first is higher: 300 to 1000 nM for the first, 100 to 300 nM for the second. The second is the more potent here.
